# T1: CD44 on B16-F10 melanoma cells (UniProt P15379 23-778)
# T1 sequence (looked up): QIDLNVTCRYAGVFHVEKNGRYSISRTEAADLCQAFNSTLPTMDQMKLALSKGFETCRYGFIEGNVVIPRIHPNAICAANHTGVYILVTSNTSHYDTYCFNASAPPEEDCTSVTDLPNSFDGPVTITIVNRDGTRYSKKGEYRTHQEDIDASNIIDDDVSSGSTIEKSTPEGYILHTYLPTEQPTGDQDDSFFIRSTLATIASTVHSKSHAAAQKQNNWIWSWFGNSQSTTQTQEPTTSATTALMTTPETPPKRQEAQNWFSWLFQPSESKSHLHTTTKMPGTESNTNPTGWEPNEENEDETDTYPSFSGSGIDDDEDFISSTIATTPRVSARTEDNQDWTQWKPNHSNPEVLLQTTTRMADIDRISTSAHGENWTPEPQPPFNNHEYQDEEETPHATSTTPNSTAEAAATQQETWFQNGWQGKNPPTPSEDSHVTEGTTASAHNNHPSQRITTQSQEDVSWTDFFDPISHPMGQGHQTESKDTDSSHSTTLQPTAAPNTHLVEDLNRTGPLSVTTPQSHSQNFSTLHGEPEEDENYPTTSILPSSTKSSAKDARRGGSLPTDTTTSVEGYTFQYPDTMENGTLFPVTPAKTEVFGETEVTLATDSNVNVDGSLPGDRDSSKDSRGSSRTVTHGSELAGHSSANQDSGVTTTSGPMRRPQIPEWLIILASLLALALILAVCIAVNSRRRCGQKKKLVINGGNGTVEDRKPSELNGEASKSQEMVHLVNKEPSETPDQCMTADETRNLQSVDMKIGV
# How the values were obtained:
# U87MG human glioma cells [1] = test: Subcutaneous glioma xenograft; format: in vivo, BALB/c (nu/nu) mice
# Description: (§1) Glioblastoma: In animal models of glioblastoma, U87MG human glioma cells were implanted subcutaneously or intracranially in BALB/c (nu/nu) mice and the animals were divided into different treatment groups. […] In this study the effects of cisplatin were also examined.
# [2] = tested on: HEY/C2 (DDP resistant) cells; test: CCK-8 cytotoxicity of DDP/PTX with or without A6; format: cell-based; conditions: 72 hours
# Description: The cells were plated in 96-well plates as described and incubated overnight. […] The CCK-8 assay described herein was performed to access cytotoxicity of DDP/PTX.
# U87MG human glioma cells [3] = test: Intracranial glioma xenograft; format: in vivo, BALB/c (nu/nu) mice
# Description: as §1
# A2780/CP cells = test: CCK-8 cytotoxicity, A6 plus DDP; format: cell-based, human
# Description: Study Conditions. Drugs: […] Drug exposure time: 1 hour; Cell line: […] Media: RPMI 1640 plus 10% FBS containing 1 mM penicillin/streptomycin; Cytotoxicity Assays: CCK-8 (Cell Counting Kit 8-Dojindo Molecular Technologies). Tissue culture plates containing 96-well plates were seeded with 4000 cells in 100 μl of media per well. The wells on rows A-[…] cells, while the wells on rows E-[…]/CP cells. […] After 1 h, increasing concentrations of DDP were added to triplicate wells in 100 μl medium. […] The cells were then allowed to grow for 96 h following which the plates were assayed for relative cell growth with the CCK-8 assay. CCK-8 assay. Five μl of CCK-8 stain was added to each well and the plate was incubated at 37° C. incubator for 4 h. The plate was read with a microplate reader at a wavelength of 450 nm. (See FIGS. 5A-5D and FIG. 6). The assay was performed using triplicate wells for each DDP concentration. The data in the tables below is the optical density in the well which is a function of the number of live cells remaining at the end of the 96 h growth period.
# IGROV-1/CP cells = test: CCK-8 cytotoxicity, A6 plus DDP; format: cell-based, human
# Description: Study Conditions. Drugs: […] Drug exposure time: 1 hour; Cell line: IGROV-1 and its DDP-resistant subline IGROV-1/CP; Media: RPMI 1640 plus 10% FBS containing 1 mM penicillin/streptomycin; Cytotoxicity Assays: CCK-8 (Cell Counting Kit 8—Dojindo Molecular Technologies). Tissue culture plates containing 96-well plates were seeded with 4000 cells in 100 μl of media per well. The wells on rows A-D were seeded with IGROV-1 cells, while the wells on rows E-H were seeded with IGROV-1/CP cells. […] After 1 h, increasing concentrations of DDP were added to triplicate wells in […] medium. […] The cells were then allowed to grow for 96 h following which the plates were assayed for relative cell growth with the CCK-8 assay. CCK-8 assay. […] of CCK-8 stain was added to each well and the plate was incubated at 37° C. incubator for 4 h. The plate was read with a microplate reader at a wavelength of 450 nm. (See FIGS. 7A-7D and FIG. 8). The assay was performed using triplicate wells for each DDP concentration. The data in the tables below is the optical density in the well which is a function of the number of live cells remaining at the end of the 96 h growth period.
# [4] = biological target: T1, CD44 on B16-F10 melanoma cells; test: cell-based or functional assay
molecule,measurement,setting,value
"N.N.[Cl][Pt][Cl] [cisplatin, reference compound]",inhibition of subcutaneous tumor growth,U87MG human glioma cells [1],53%
same,IC50 in HEY/C2 cells compared to HEY cells,[2],about 7 fold
same,inhibition of tumor growth,U87MG human glioma cells [3],82%
same,resistance of the cells to DDP,A2780/CP cells,not very resistant
same,resistance of the cells to DDP,IGROV-1/CP cells,appeared not to be resistant
"CC(=O)O[C@H]1C(=O)[C@@]2(C)[C@H]([C@H](OC(=O)c3ccccc3)[C@]3(O)C[C@H](OC(=O)[C@H](O)[C@@H](NC(=O)c4ccccc4)c4ccccc4)C(C)=C1C3(C)C)[C@]1(OC(C)=O)CO[C@@H]1C[C@@H]2O [paclitaxel, reference compound]",resistance of HEY/C2 cells compared to HEY cells,[2],resisted to paclitaxel
Ac-KPSSPPEE-NH2 [A6 peptide (Ac-KPSSPPEE-NH2)],IC50 for A6 inhibition of chemotaxis in B16-F10 cells,[4],29 nmol/L

# Source: patent US20190381127A1, “COMBINATION THERAPY WITH A6, CHEMOTHERAPEUTIC AGENTS, RADIATION THERAPY, OR A COMBINATION THEREOF FOR THE TREATMENT OF CANCER” (Splash Pharmaceuticals, Inc., priority 2016, published 2019)
